Key:
[1] = target: T1, Ba/F3-Flt3-transfected cells (Homo sapiens, UniProt P36888, cells depend on it, form not given); assay: Ba/F3-Flt3 (minus IL3) cellular proliferation assay, Alamar Blue; format: cell-based
T1 sequence (P36888 1-993): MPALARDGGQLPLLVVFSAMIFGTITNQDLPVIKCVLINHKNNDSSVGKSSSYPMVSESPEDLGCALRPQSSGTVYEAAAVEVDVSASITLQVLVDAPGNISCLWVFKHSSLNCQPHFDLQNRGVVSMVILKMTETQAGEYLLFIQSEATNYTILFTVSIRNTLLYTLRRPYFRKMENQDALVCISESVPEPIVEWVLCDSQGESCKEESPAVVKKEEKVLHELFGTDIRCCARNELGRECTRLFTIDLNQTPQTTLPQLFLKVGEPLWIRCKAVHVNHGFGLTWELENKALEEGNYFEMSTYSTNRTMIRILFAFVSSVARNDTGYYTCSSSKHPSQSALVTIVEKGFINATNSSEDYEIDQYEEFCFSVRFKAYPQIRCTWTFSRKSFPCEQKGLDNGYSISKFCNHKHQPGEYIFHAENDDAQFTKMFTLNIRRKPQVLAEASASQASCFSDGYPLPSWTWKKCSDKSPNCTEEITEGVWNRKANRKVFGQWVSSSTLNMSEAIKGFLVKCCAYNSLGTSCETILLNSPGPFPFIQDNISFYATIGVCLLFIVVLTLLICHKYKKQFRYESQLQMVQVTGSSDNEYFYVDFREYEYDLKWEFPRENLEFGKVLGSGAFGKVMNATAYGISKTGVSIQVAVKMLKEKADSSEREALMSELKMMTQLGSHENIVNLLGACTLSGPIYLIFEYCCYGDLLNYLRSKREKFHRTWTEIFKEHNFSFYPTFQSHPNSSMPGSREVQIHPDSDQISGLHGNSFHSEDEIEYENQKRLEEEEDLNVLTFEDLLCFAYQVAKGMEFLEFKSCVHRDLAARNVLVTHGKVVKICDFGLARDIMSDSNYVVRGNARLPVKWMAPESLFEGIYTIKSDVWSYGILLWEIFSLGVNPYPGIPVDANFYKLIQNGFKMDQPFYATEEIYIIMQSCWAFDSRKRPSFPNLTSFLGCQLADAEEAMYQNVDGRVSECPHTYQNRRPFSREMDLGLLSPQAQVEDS
Method: Ba/F3-Flt3 (Minus IL3 or Plus IL3) (Cellular Proliferation Assay)
(§1) Cells were put in an incubator at 37° C. and 5% CO2. After 24 hours, 10 μl of Alamar Blue solution (0.5 mM K3Fe(CN)6, 0.5 mM KaFe(CN)6, 0.15 mM Resazurin and 100 mM Phosphate Buffer) was added to the wells, incubated for 4 hours at 37° C. and 5% CO2 before RFU's (Relative Fluorescence Units) (ex. 540 nm., em. 590 nm.) were measured in a flurorescence plate reader. […]
(§2) In a 96 well plate, 180 μl cell culture medium (phenol red free RPMI-1640, 10% FBS, 2 mM L-Glutamine and 50 μg/ml Gentamycin) containing 10000 cells per well of Ba/F3-Flt3-transfected cells were pipette and 20 μl of compound dilution in DMSO was added. Cells were put in an incubator at 37° C. and 5% CO2. After 24 hours, 40 μl of Alamar Blue solution (0.5 mM K3Fe(CN)6, 0.5 mM KaFe(CN)6, 0.15 mM Resazurin and 100 mM Phosphate Buffer) was added to the wells, incubated for 4 hours at 37° C. and 5% CO2 before RFU's (Relative Fluorescence Units) (ex. 540 nm., em. 590 nm.) were measured in a flurorescence plate reader.

[2] = tested on: Ba/F3-FGFR1-transfected cells in the presence of 10 ng/ml murine IL3; assay: Ba/F3-FGFR1 (plus IL3) cellular proliferation counterscreen, Alamar Blue; format: cell-based; conditions: plus IL3, 384 well; for IC50: Mus musculus, read-out: BAF3-FGFR 1 (PLUS IL3) 384 well pIC50 (converted)
Method: Ba/F3-FGFR1 (Minus IL3 or Plus IL3) (Cellular Proliferation Assay)
as §2, with “a 384” for “a 96”, “plate, 100 nl of compound dilution in DMSO was sprayed before adding 50” for “plate, 180”, “containing 20000” for “containing 10000”, “of Ba/F3-FGFR1-transfected cells.” for “of Ba/F3-Flt3-transfected cells were pipette and 20 μl of compound dilution in DMSO was added.”, “hours, 10” for “hours, 40”
As a counterscreen the same experiment was performed in the presence of 10 ng/ml murine IL3.
as §2, with “Ba/F3-FGFR1-transfected” for “Ba/F3-Flt3-transfected”

[3] = target: Ba/F3-FGFR3-transfected cells (Homo sapiens, UniProt P22607); assay: Ba/F3-FGFR3 (minus IL3) cellular proliferation assay, Alamar Blue; format: cell-based; conditions: for BAF3-FGFR 3 (MIN IL3) 384 well pIC50: minus IL3, 384 well; for BAF3-FGFR 3 (MIN IL3) 96 well pIC50: minus IL3, 96 well
Method: Ba/F3-FGFR3 (Minus IL3 or Plus IL3) (Cellular Proliferation Assay)
as §1
as §2, with “Ba/F3-FGFR3-transfected” for “Ba/F3-Flt3-transfected”

Chain of Ba/F3-FGFR3-transfected cells (P22607 whole entry, change not shown): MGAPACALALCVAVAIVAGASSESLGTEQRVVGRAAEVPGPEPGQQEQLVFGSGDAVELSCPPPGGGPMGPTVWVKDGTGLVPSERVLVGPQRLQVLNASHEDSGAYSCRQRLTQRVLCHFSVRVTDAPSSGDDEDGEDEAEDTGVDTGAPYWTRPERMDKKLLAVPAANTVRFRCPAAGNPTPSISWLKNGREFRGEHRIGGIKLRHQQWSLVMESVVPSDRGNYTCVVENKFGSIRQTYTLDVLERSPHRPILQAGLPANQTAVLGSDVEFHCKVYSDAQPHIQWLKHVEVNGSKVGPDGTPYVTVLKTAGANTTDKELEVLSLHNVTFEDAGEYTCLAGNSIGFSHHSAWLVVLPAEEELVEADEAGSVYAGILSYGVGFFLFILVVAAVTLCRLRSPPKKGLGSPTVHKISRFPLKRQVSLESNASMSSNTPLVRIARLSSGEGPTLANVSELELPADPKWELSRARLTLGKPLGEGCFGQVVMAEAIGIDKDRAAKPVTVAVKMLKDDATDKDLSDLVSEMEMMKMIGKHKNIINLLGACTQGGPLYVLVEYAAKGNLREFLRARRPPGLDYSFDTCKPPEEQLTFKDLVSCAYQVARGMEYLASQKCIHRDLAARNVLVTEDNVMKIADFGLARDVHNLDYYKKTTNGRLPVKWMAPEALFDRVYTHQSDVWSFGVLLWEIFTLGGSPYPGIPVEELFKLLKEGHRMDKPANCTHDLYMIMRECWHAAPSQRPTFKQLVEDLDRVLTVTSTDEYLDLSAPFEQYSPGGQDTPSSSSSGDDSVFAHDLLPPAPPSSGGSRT

SMILES | BAF3-FLT3 (MIN IL3) 384 well pIC50 ([1]; minus IL3) | IC50 [2] | BAF3-FGFR 3 (MIN IL3) 384 well pIC50 [3] | further results
COCC(CN(c1cc(OC)cc(OC)c1)c1ccc2ncc(-c3cccnc3)nc2c1)OC(C)=O (single isomer, unassigned) [Compound 52] | <5 | > 10 µM | ~6.17 | 
COCC(CN(c1cc(OC)cc(OC)c1)c1ccc2ncc(-c3cccnc3)nc2c1)OC(C)=O (single isomer, unassigned) [Compound 76] | <5 |  | 6.59 | BAF3-FGFR 1 (PLUS IL3) 384 well pIC50 [2]: <5
COc1cc(OC)cc(N(CCCNCC(F)(F)F)c2ccc3ncc(-c4ccn(C)c4)nc3c2)c1 [Compound 5] | <5 | > 10 µM | 6.57 | 
COc1cc(OC)cc(N(CC2CC2)c2ccc3ncc(N4CCN(CCO)CC4)nc3c2)c1 [Compound 49] | <5 | > 10 µM | <5 | BAF3-FLT3 (MIN IL3) 96 well pIC50 ([1]; minus IL3): 5.2; BAF3-FGFR 3 (MIN IL3) 96 well pIC50 [3]: 5.5
COc1cc(OC)cc(N(CCNC(C)C)c2ccc3ncc(N4CCC(CN)CC4)nc3c2)c1 [Compound 67] | 5 | 8.51 µM | 5.83 | 
COc1cc(OC)cc(N(CCNC(C)C)c2ccc3ncc(-n4cnc(CO)c4)nc3c2)c1 [Compound 77] | <5 | > 10 µM | 7.12 | 
COc1cc(OC)cc(N(CCO)c2ccc3ncc(N4CCC(CN)CC4)nc3c2)c1 [Compound 84] | <5 |  | <5 | melting point: 159 °C
COc1cc(OC)cc(N(CC2CC2)c2ccc3ncc(-c4nnc(C)o4)nc3c2)c1 [Compound 85] |  |  | <5 | BAF3-FLT3 (MIN IL3) 96 well pIC50 ([1]; minus IL3, 96 well): <5; BAF3-FLT3 (MIN IL3) 384 well pIC50 ([1]; minus IL3, 384 well): <5; melting point: 134 °C; BAF3-FGFR 3 (MIN IL3) 96 well pIC50 [3]: 5.06
COc1cc(OC)cc(N(CCCNCCCO)c2ccc3ncc(-c4ccnc(C(=O)NCCCCN)c4)nc3c2)c1 [Compound 132] | 5.31 | > 10 µM | 5.57 | 
COc1cc(OC)cc(N(CCO)c2ccc3ncc(-c4ccnc(C(=O)NCCCCCN)c4)nc3c2)c1 [Compound 138] | <5 |  | 5.04 | 
COc1cc(OC)cc(N(CCO)c2ccc3ncc(-c4ccnc(C(=O)NCCCCCO)c4)nc3c2)c1 [Compound 139] | <5 | > 10 µM | 5.72 | 
COc1cc(OC)cc(N(CCCNC(C)C)c2ccc3ncc(-c4ccnc(N)c4)nc3c2)c1 [Compound 143] | ~5.25 | 5.62 µM | 6.4 | 
COc1cc(OC)cc(N(CCNC(C)C)c2ccc3ncc(-c4ccnc(C(=O)NCCCN)c4)nc3c2)c1 [Compound 146] | <5 | > 10 µM | 6.41 | 
COc1cc(OC)cc(N(CCCNCC(F)(F)F)c2ccc3ncc(C(=O)NCCN4CCOCC4)nc3c2)c1 [Compound 158] | <5 | > 10 µM | <5 | 
COc1cc(OC)cc(N(CCNC(C)C)c2ccc3ncc(C(=O)NCCCN4CCN(C)CC4)nc3c2)c1 [Compound 159] | <5 | > 10 µM | 5.82 | 
COc1cc(OC)cc(N(CCNC(C)C)c2ccc3ncc(C(=O)NCCN4CCOCC4)nc3c2)c1 [Compound 160] | <5 | > 10 µM |  | 
COc1cc(OC)cc(N(CCNC(C)C)c2ccc3ncc(NCC4CCNCC4)nc3c2)c1 [Compound 161] | <5 | > 10 µM | 5.38 | 
COc1cc(OC)cc(N(CCNC(C)C)c2ccc3ncc(-c4ccc(N5CCN(C)CC5)nc4)nc3c2)c1 [Compound 170] | 5.47 | 3.55 µM | 6.16 | 
COC(=O)C1CCCN1c1cnc2ccc(N(CCO)c3cc(OC)cc(OC)c3)cc2n1 (stereo not shown) [Compound 172] | 5.19 | > 10 µM | 5.36 | 
COc1cc(OC)cc(N(CCNC(C)C)c2ccc3ncc(C(=O)N4CCN(C)CC4)nc3c2)c1 [Compound 179] | <5 | > 10 µM | 5.19 | 
COc1cc(OC)cc(N(CCNC(C)C)c2ccc3ncc(C(=O)N4CCCCC4)nc3c2)c1 [Compound 180] | <5 | > 10 µM | 5.28 | 
COc1cc(OC)cc(N(CCNC(C)C)c2ccc3ncc(C(=O)N4CCOCC4)nc3c2)c1 [Compound 181] | <5 | > 10 µM | 5.16 | 
COc1cc(OC)cc(N(CCO)c2ccc3ncc(C4CCN(C(=O)OC(C)(C)C)CC4)nc3c2)c1 [Compound 185] | <5 | > 10 µM | 5.01 | 
COc1cc(OC)cc(N(CCCO)c2ccc3ncc(-c4ccnc(C(=O)NCCOCCO)c4)nc3c2)c1 [Compound 186] | <5 | > 10 µM | 5.8 | 
COc1cc(OC)cc(N(CCNC(C)C)c2ccc3ncc(-c4ccn[nH]4)nc3c2)c1 [Compound 189] |  | > 10 µM | ~7.1 | 

— patent publication US10052320B2, “Substituted quinoxalines as FGFR kinase inhibitors” (ASTEX THERAPEUTICS LIMITED, priority 2011, dated 2018)
